Earlier results, collected in US7192954B2, “Monocyclic anilide spirohydantoin CGRP receptor antagonists” (Merck & Co., Inc., priority 2003, dated 2007).
Ends that are not written are not given here.

Experiments:
marmoset = conditions: electrical stimulation of the trigeminal ganglion
rat = conditions: trigeminal ganglion stimulation
rats = conditions: electrical stimulation of the dura mater, prior administration

Q: Which “increase in facial blood flow” value (marmoset) does the source give for `NCCCC[C@H](NC(=O)[C@@H](Cc1cc(Br)c(O)c(Br)c1)NC(=O)N1CCC(N2Cc3ccccc3NC2=O)CC1)C(=O)N1CCN(c2ccncc2)CC1` [BIBN4096BS] here?
A: The value was “blocked”.

Q: Which “increase of facial blood flow” value (rat) does the source give for “CGRP(8–37): a peptide CGRP antagonist (VTHRLAGLLSRSGGVVKNNFVPTNVGSKAF; ends and bridges not checked; UniProt P06881 90-119, looked up, fragment)” here?
A: Its value is “inhibited”.

Q: And the “increase of the diameter of the middle meningeal artery” value (rats)?
A: Its value is “blocked”.
